In ChEMBL document CHEMBL5385907, “Proline-Hinged α-Helical Peptides Sensitize Gram-Positive Antibiotics, Expanding Their Physicochemical Properties to Be Used as Gram-Negative Antibiotics” (J Med Chem, 2024):
The source made the active and inactive calls. The calls are words filed in the database; no cut-off is given here.

Assays:
[1] = tested on: Escherichia coli; assay: Antibacterial activity against Escherichia coli ATCC 25922 assessed as inhibition of bacterial growth incubated for 18 hrs by two fold serial dilution assay; assay type: functional
[2] = tested on: Acinetobacter baumannii; assay: Antibacterial activity against Acinetobacter baumannii ATCC 17978 assessed as inhibition of bacterial growth incubated for 18 hrs by two fold serial dilution assay; assay type: functional
[3] = tested on: Klebsiella pneumoniae; assay: Antibacterial activity against Klebsiella pneumoniae ATCC 700603 assessed as inhibition of bacterial growth incubated for 18 hrs by two fold serial dilution assay; assay type: functional
[4] = Hemolytic activity in human blood assessed as hemolysis incubated for 6 hrs by microplate reader analysis; assay type: toxicity, tissue-based
[5] = Hydrophobicity of the compound assessed as retention time by reversed-phase HPLC analysis; assay type: physicochemical
[6] = tested on: Escherichia coli; assay: Potentiation of erythromycin induced antibacterial activity against Escherichia coli ATCC 25922 assessed as decrease in bacterial growth at 0.4 uM incubated for 18 hrs in presence of erythromycin by two fold serial dilution assay; assay type: functional, organism-based
[7] = tested on: Escherichia coli; assay: Potentiation of fusidic acid induced antibacterial activity against Escherichia coli ATCC 25922 assessed as decrease in bacterial growth at 0.4 uM incubated for 18 hrs in presence of fusidic acid by two fold serial dilution assay; assay type: functional, organism-based
[8] = tested on: Escherichia coli; assay: Potentiation of novobiocin induced antibacterial activity against Escherichia coli ATCC 25922 assessed as decrease in bacterial growth at 0.4 uM incubated for 18 hrs in presence of novobiocin by two fold serial dilution assay; assay type: functional, organism-based
[9] = tested on: Acinetobacter baumannii; assay: Potentiation of erythromycin induced antibacterial activity against Acinetobacter baumannii ATCC 17978 assessed as decrease in bacterial growth at 0.4 uM incubated for 18 hrs in presence of erythromycin by two fold serial dilution assay; assay type: functional, organism-based
[10] = tested on: Acinetobacter baumannii; assay: Potentiation of fusidic acid induced antibacterial activity against Acinetobacter baumannii ATCC 17978 assessed as decrease in bacterial growth at 0.4 uM incubated for 18 hrs in presence of fusidic acid by two fold serial dilution assay; assay type: functional, organism-based
[11] = tested on: Acinetobacter baumannii; assay: Potentiation of novobiocin induced antibacterial activity against Acinetobacter baumannii ATCC 17978 assessed as decrease in bacterial growth at 0.4 uM incubated for 18 hrs in presence of novobiocin by two fold serial dilution assay; assay type: functional, organism-based
[12] = tested on: Klebsiella pneumoniae; assay: Potentiation of erythromycin induced antibacterial activity against Klebsiella pneumoniae ATCC 700603 assessed as decrease in bacterial growth at 0.4 uM incubated for 18 hrs in presence of erythromycin by two fold serial dilution assay; assay type: functional, organism-based
[13] = tested on: Klebsiella pneumoniae; assay: Potentiation of fusidic acid induced antibacterial activity against Klebsiella pneumoniae ATCC 700603 assessed as decrease in bacterial growth at 0.4 uM incubated for 18 hrs in presence of fusidic acid by two fold serial dilution assay; assay type: functional, organism-based
[14] = tested on: Klebsiella pneumoniae; assay: Potentiation of novobiocin induced antibacterial activity against Klebsiella pneumoniae ATCC 700603 assessed as decrease in bacterial growth at 0.4 uM incubated for 18 hrs in presence of novobiocin by two fold serial dilution assay; assay type: functional, organism-based
[15] = tested on: Escherichia coli; assay: Potentiation of rifampicin induced antibacterial activity against NDM1-producing carbapenem-resistant Escherichia coli infected CD1 mouse sepsis model assessed as reduction in bacterial colony forming unit in blood at 10 mg/kg,SC administrated after 2 hrs of post-infection in presence of rifampicin; assay type: functional
[16] = tested on: Escherichia coli; assay: Potentiation of rifampicin induced antibacterial activity against NDM1-producing carbapenem-resistant Escherichia coli infected CD1 mouse sepsis model assessed as reduction in bacterial colony forming unit in blood at 10 mg/kg,SC administrated after 6 hrs of post-infection in presence of rifampicin; assay type: functional
[17] = Nephrotoxicity in Sprague-Dawley rat assessed as increase in blood urea nitrogen level at 30 mg/kg,iv administration for 1 hr and measured after 25 hrs; assay type: toxicity, organism-based; conditions: in vivo, 26 h
[18] = Nephrotoxicity in Sprague-Dawley rat assessed as increase in creatinine level at 30 mg/kg,iv administration for 1 hr and measured after 25 hrs; assay type: toxicity, organism-based; conditions: in vivo, 26 h
[19] = tested on: Escherichia coli; assay: Antibacterial activity against Escherichia coli ATCC 25922 assessed as change in membrane fluidity incubated for 1 hr by generalized polarization assay; assay type: functional, organism-based
[20] = tested on: Escherichia coli; assay: Antibacterial activity against Escherichia coli ATCC 25922 assessed as bacterial growth inhibition incubated for 1 hr by propidium iodide staining based fluorescence assay; assay type: functional, organism-based

Ac-KKLLKLLKKPLKLLA-NH2
MIC [1]: > 80 µM | MIC [2]: 2.5 µM | MIC [3]: > 80 µM | MHC10 [4]: > 160 µM | Retention_time [5]: 18.9 min | Activity [6]: Active | Activity [7]: Active | Activity [8]: Active | Activity [9]: Active | Activity [10]: Active | Activity [11]: Active | Activity [12]: Active | Activity [13]: Active | Activity [14]: Active

Ac-KLLKLLKKPLKLLK-NH2
MIC [1]: > 80 µM | MIC [2]: 80 µM | MIC [3]: > 80 µM | MHC10 [4]: > 160 µM | Retention_time [5]: 18.8 min | Activity [15]: >3 log10CFU | Activity [16]: >3 log10CFU

COLISTIN
Activity [17]: 30 mg/dL | Activity [18]: 0.74 mg/dL

POLYMYXIN B
Activity [19]: Active | Activity [20]: Active
